# Source: PMC3556479 (Biochemistry, 2013)
# Columns and labels:
# Assay type in all cases: biochemical
# [1] = biological target: T1, orotidine 5′-monophosphate decarboxylase (OMPDC) (Saccharomyces cerevisiae, UniProt P03962, S2H/C155S/A160S/N267D)
# T1 sequence (P03962 2-267 S2H/C155S/A160S/N267D): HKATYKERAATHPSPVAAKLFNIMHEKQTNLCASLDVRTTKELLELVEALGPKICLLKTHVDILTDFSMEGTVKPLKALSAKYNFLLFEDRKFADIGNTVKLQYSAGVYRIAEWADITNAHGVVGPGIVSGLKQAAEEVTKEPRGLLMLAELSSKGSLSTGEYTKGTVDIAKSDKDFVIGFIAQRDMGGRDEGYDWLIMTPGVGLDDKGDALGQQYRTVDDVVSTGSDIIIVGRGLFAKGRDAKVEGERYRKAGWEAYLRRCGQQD
# [2] = biological target: T1, orotidine 5′-monophosphate decarboxylase (OMPDC); remark: listed apart in the source
# [3] = biological target: T2, orotidine 5′-monophosphate decarboxylase (OMPDC) (Saccharomyces cerevisiae, UniProt P03962, A160S/C155S/N267D/S2H); assay: activation of FEO decarboxylation by added phosphite, nonlinear fit to eq […]
# T2 sequence (P03962 2-267 S2H/C155S/A160S/N267D): T1 sequence (P03962 2-267 S2H/C155S/A160S/N267D)
compound,measurement,setting,value
"C[C@H]1O[C@@H](n2c(C(=O)O)c(F)c(=O)[nH]c2=O)[C@H](O)[C@@H]1O [5′-dFO, 5′-Deoxy-5-fluoroorotidine]","HPLC initial-velocity decarboxylation assay, purified yeast OMPDC, with and with",[1],0.078 M^−1 s^−1 (kcat/Km)
"O=C(O)c1c(F)c(=O)[nH]c(=O)n1[C@@H]1OC[C@@H](O)[C@H]1O [FEO, 1-(β-D-Erythrofuranosyl)-5-fluoroorotic acid]","spectrophotometric decarboxylation assay at 282 nm, purified yeast OMPDC, with a",[2],10 M^−1 s^−1 (kcat/Km)
"O=[PH](O)O [HPO3^2−, phosphite dianion]",Kd,[3],100 mM
